Measured values reported in article PMC8041276 (ACS Chemical Neuroscience, 2021).

Assays:
cognitive flexibility = assay: Attentional set-shifting task (ASST); assay type: in vivo, male Sprague-Dawley rats; conditions: rats
Description: The experiments were conducted in accordance with the NIH Guide for the Care and Use of Laboratory Animals and were approved by the II Local Ethics Committee for Animal Experiments, Maj Institute of Pharmacology. Male […] Sprague-Dawley rats (Charles River, Germany) weighing ∼250 g at the arrival were housed in the standard laboratory cages, under standard colony A/C controlled conditions: room temperature 21 ± 2 °C, humidity (40–50%), 12 h light/dark cycle (lights on, 06:00) with ad libitum access to food (unless stated otherwise) and water. Rats were allowed to acclimatize for at least 7 days before the start of the experimental procedure. During this week animals were handled at least 3 times. Behavioral testing was carried out during the light phase of the light/dark cycle. At least 1 h before the start of the experiment, rats were transferred to the experimental room for acclimation.
Thirty-two male Sprague-Dawley rats were group housed with a mild food restriction (17 g of food pellets per day) for at least 1 week prior to training.
Testing was conducted in a Plexiglas apparatus (length × width × height: 38 cm × 38 cm × 17 cm) with the grid floor and wall dividing half of the length of the cage into two sections. During testing, one ceramic digging pot (internal diameter of 10.5 cm and a depth of 4 cm) was placed in each section. Each pot was defined by a pair of cues along with two stimulus dimensions. To mark each pot with a distinct odor, 5 μL of a flavoring essence (Dr Oetker, Poland, or The Body Shop, U.K.) was applied to a piece of blotting paper fixed to the external rim of the pot immediately prior to use. A different pot was used for each combination of digging medium and odor; only one odor was ever applied to a given pot. The bait (one-half of a Honey Nut Cheerios, Nestle) was placed at the bottom of the “positive” pot and buried in the digging medium. A small amount of powdered Cheerios was added to the digging media to prevent the rat from trying to detect the buried reward by its smell. […]
Day 3, Testing. […] An incorrect choice was recorded as an error. […]

CYP2D6 = target: T1, CYP2D6 (Homo sapiens, UniProt P10635); assay: CYP2D6 P450-Glo luminescent inhibition assay; assay type: in vitro ADME; conditions: 0.01–25 μM
T1 construct: purchased Promega (Madison, WI, USA)
T1 sequence (P10635 whole entry): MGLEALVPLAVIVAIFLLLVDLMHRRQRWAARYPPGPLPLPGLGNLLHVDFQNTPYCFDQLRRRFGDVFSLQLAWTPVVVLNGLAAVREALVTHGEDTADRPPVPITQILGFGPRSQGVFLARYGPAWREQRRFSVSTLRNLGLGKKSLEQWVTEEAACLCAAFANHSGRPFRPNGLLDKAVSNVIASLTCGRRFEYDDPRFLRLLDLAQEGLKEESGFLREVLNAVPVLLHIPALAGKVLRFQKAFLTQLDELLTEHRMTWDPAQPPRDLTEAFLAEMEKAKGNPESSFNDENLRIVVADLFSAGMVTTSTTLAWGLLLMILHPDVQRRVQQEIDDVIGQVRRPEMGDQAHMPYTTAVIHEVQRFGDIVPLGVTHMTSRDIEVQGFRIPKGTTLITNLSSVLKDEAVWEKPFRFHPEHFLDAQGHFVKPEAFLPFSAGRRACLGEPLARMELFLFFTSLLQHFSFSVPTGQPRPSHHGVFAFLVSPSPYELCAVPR
Text: The luminescent CYP3A4 P450-Glo and CYP2D6 P450-Glo assays and protocols were provided by Promega (Madison, WI, USA). The P450-Glo systems based on the conversion proluciferins, derivatives of beetle luciferin [(4S)-4,5-dihydro-2-(6′-hydroxy-2′-benzothiazolyl)-4-thiazolecarboxylic acid] into D-luciferin were catalyzed by respective CYP isoform. D-Luciferin is formed and detected in a second reaction with the luciferin detection reagent (LDR). The amount of light produced in the second reaction is proportional to CYP activity.
The stock solutions (10 mM) of the references ketoconazole (KE), quinidine (QD), and examined compounds were performed in DMSO. The 4× concentrated dilutions were prepared before the assays. […]
The CYPs, proluciferin, and examined compounds (25 μL/well) were preincubated first for 5 min, and next the NADPH regeneration system was added (25 μL) to start the reaction. […] The control reactions for measuring the 100% of CYPs activity and minus-CYP negative control reactions for measure background luminescence were also prepared. […] Finally, LDR was added (50 μL/well), and after 20 min of incubation in room temperature the luminescence signal was measured with a microplate reader (EnSpire, PerkinElmer) in luminescence mode. […] The IC50 values and were calculated using GraphPad Prism 5 software.

O=C(N[C@@H]1CCNC1)c1ccn(S(=O)(=O)c2cccc(Cl)c2)c1-c1ccc(F)cc1 [Compound 27, (R)-2-(4-Fluorophenyl)-1-[(3-chlorophenyl)sulfonyl]-N-(pyrrolidin-3-yl)-1H-pyrrole-3-carboxamide]
cognitive flexibility (trials to criterion) (cognitive flexibility; 6 mg/kg p.o.): effective only during the Rev2 phase | cognitive flexibility (trials to criterion) (cognitive flexibility; 9 mg/kg p.o., ED, Rev1, Rev2, Rev3 stages): enhanced cognitive flexibility | mean time to complete the trial (cognitive flexibility; 6 and 9 mg/kg p.o., all discrimination stages): did not affect the mean time to complete the trial | influence on CYP2D6 activity (CYP2D6): did not significantly influence
